Assay results as given in PMC8151276, “An Integrated Approach toward NanoBRET Tracers for Analysis of GPCR Ligand Engagement” (Molecules, 2021).

Key:
Format in all cases: binding
AGTR2 = biological target: T1, AGTR2 (Homo sapiens, UniProt P50052); assay: NanoBRET screen HiBiT-AGTR2 in HEK293; conditions: AGTR2
T1 construct: purchased Promega (in-house HiBiT-GPCR construct library, NanoBRET)
T1 sequence (P50052 1-363): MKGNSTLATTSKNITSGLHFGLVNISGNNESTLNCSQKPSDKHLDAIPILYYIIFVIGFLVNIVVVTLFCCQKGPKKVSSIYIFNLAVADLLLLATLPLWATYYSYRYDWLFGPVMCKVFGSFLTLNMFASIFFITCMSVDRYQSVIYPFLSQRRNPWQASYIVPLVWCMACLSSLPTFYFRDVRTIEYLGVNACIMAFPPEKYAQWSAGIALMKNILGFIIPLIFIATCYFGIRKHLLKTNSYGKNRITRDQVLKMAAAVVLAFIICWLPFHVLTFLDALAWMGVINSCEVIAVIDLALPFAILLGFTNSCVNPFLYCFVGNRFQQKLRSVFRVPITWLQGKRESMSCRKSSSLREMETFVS
Procedure: (§1) Each tracer candidate was screened across the entire library of HiBiT-GPCR constructs using NanoBRET as the detection modality. As depicted in Figure 4A, the specificity of interactions was evaluated through decrease in BRET due to competitive displacement of a bound tracer by excess parental compound. Each tracer was analyzed for binding to each HiBiT-GPCR fusion in the absence and in the presence of competing parental compound. Briefly, HEK293 cells were transfected with HiBiT-GPCR constructs diluted into promoterless DNA to reduce expression and maximize translocation to the cell surface. Each tracer candidate was then screened at concentrations of 1 μM and 0.1 μM across cells expressing these fusions. Cells were treated for 1.5 h with tracer either alone or in the presence of 20 μM competing parental compound (i.e., control). BRET was measured upon addition of purified LgBiT and subsequent complementation with HiBiT genetically fused to a GPCR. The specificity of interactions was assessed through a decrease in BRET signal due to competitive displacement of the bound tracer. To further gauge the robustness of these interactions, the fold response over the control (i.e., BRETtracer/BRETcontrol) was calculated. We chose a 1.5-fold response, which translates to ≥7-fold signal over noise as the minimal threshold required to score an interaction as positive. […]. Below we highlight the screening results obtained for our exemplary fluorescent tracers based on Clozapine, Amitriptyline and AZD1283.
(§2) HiBiT-GPCR DNA constructs were diluted in 10 mM Tris pH 8 to a final concentration of 0.01 μg/μL, arrayed in 96-well plates and stored at −20 °C. For transfection, HEK293 cells were suspended in Opti-MEM (without phenol red) supplemented with 2% fetal bovine serum (Seradigm) and 100 units/mL penicillin–streptomycin (Gibco) at a final concentration of 220,000 cells/mL and dispensed into white 96-well plates at 90 μL/well. Subsequent transfections and screens were carried using an Agilent Bravo Automated Liquid Handling Platform. First, the 96-well HiBiT DNA arrays were diluted 25-fold in Opti-MEM (without serum or phenol red) to a final concentration of 0.0004 μg/μL and 20 μL of the diluted DNAs were transferred into new 96-well plates. Next, promoterless carrier DNA (1 μg/μL) was diluted 25-fold (0.04 μg/μL) and then dispensed into the diluted arrays at 20 μL/well. Following brief mixing, Viafect transfection reagent (Promega) diluted 16-fold into Opti-MEM was dispensed into the plates at 40 μL/well. After mixing by pipetting, plates were incubated for 10 min on the pipetting station deck. The DNA-transfection reagent complexes were then added to plates containing cells. To facilitate the screen, 10 μL of DNA-transfection reagent complexes were added in duplicates to the top 4 and bottom 4 rows, resulting in two identical 48-well arrays per plate. Plates with transfected cells were incubated for 18–20 h at 37 °C/5% CO2. A screen of each tracer across the entire library using two different concentrations requires duplicate plates of transfected cells. Depending on the number of tracers being screened, transfections can be scaled up using the same ratios. The next day, for each tracer, four 20× screening solutions in tracer dilution buffer (Promega) were prepared: two duplicates at final concentration of 20 μM and two duplicates at a final concentration of 2 μM. A competing unmodified compound was added to one of each duplicate at a final concentration of 400 μM. The four resulting solutions were diluted 4-fold in Opti-MEM without serum or phenol red to generate 5× solutions (5 µM and 0.5 µM tracer +/− 100 μM competing compound). To screen the library, a BioTek MultiFlo FX liquid dispenser was used to dispense 22.5 µL of tracer solution to the top 4 rows and 22.5 µL tracer + competing compound solution to the 4 bottom rows. Plates were briefly mixed on an orbital shaker and incubated for 1.5 h at room temperature. […]

P2RY2 = biological target: T2, P2RY2 (Homo sapiens, UniProt P41231); assay: NanoBRET screen HiBiT-P2RY2 in HEK293; conditions: P2RY2
T2 construct: purchased Promega (in-house HiBiT-GPCR construct library, NanoBRET)
T2 sequence (P41231 whole entry): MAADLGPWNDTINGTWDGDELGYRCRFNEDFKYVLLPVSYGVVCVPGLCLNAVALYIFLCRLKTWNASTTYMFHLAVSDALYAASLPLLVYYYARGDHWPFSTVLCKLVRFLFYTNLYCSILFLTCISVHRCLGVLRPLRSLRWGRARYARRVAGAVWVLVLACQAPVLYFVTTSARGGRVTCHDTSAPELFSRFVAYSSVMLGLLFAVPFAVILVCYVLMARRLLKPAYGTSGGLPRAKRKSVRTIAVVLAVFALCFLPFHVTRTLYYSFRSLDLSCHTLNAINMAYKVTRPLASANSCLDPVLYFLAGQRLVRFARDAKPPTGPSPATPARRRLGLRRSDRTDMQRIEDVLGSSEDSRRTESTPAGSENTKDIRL
Procedure: as §1, §2

P2RY10 = biological target: T3, P2RY10 (Homo sapiens, UniProt O00398); assay: NanoBRET screen HiBiT-P2RY10 in HEK293; conditions: P2RY10
T3 construct: purchased Promega (in-house HiBiT-GPCR construct library, NanoBRET)
T3 sequence (O00398 whole entry, one chain of several): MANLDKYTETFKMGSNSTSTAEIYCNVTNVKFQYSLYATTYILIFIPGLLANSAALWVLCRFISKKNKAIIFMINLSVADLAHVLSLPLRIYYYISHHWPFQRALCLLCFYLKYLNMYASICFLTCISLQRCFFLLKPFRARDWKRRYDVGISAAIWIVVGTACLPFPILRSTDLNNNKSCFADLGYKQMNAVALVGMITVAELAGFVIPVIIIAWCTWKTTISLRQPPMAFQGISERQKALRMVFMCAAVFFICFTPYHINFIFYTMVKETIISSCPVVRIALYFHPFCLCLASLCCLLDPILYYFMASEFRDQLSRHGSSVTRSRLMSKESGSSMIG
Procedure: as §1, §2

BRS3 = biological target: T4, BRS3 (Homo sapiens, UniProt P32247); assay: NanoBRET screen HiBiT-BRS3 in HEK293; conditions: BRS3
T4 construct: purchased Promega (in-house HiBiT-GPCR construct library, NanoBRET)
T4 sequence (P32247 1-399): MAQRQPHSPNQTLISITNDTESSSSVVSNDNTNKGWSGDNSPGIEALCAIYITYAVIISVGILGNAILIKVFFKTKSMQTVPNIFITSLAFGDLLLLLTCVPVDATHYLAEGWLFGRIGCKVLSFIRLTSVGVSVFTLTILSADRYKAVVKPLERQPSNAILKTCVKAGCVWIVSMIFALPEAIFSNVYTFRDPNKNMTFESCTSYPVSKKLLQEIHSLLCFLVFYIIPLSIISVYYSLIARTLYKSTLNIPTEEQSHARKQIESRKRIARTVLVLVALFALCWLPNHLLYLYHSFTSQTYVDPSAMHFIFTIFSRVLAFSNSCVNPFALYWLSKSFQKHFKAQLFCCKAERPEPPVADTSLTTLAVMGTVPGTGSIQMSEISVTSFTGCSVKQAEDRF
Procedure: as §1, §2

MTNR1B = biological target: T5, MTNR1B (Homo sapiens, UniProt P49286); assay: NanoBRET screen HiBiT-MTNR1B in HEK293; conditions: MTNR1B
T5 construct: purchased Promega (in-house HiBiT-GPCR construct library, NanoBRET)
T5 sequence (P49286 1-362): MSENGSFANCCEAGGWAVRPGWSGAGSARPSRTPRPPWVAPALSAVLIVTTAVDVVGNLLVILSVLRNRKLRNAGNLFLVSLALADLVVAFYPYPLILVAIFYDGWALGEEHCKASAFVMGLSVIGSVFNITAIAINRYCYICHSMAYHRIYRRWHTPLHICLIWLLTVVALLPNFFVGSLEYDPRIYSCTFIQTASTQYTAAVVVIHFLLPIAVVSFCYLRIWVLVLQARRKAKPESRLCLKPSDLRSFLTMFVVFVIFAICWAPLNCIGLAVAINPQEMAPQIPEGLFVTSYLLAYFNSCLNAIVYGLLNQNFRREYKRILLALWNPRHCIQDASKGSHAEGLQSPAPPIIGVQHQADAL
Procedure: as §1, §2

GCGR = biological target: T6, GCGR (Homo sapiens, UniProt P47871); assay: NanoBRET screen HiBiT-GCGR in HEK293; conditions: GCGR
T6 construct: purchased Promega (in-house HiBiT-GPCR construct library, NanoBRET)
T6 sequence (P47871 26-477): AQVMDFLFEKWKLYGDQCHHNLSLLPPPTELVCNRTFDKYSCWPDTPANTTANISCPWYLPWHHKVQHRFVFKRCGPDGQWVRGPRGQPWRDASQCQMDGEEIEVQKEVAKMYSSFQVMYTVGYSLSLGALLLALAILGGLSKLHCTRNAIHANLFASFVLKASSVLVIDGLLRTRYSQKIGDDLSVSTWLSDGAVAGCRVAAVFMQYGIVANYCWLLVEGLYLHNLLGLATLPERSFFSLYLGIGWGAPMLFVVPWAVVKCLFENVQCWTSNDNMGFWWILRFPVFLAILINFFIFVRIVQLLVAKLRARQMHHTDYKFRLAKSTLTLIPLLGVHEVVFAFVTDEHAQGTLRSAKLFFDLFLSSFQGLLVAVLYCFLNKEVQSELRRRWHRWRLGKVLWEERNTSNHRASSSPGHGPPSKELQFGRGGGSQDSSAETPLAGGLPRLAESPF
Procedure: as §1, §2

| Structure (SMILES) | NanoBRET Fold Response (AGTR2; tracer 0.1μM) | NanoBRET Fold Response (AGTR2; tracer 1μM) | NanoBRET Fold Response (P2RY2; tracer 0.1μM) | NanoBRET Fold Response (P2RY2; tracer 1μM) | NanoBRET Fold Response (P2RY10; tracer 0.1μM) | NanoBRET Fold Response (P2RY10; tracer 1μM) | NanoBRET Fold Response (BRS3; tracer 0.1μM) | NanoBRET Fold Response (BRS3; tracer 1μM) | NanoBRET Fold Response (MTNR1B; tracer 0.1μM) | NanoBRET Fold Response (MTNR1B; tracer 1μM) | NanoBRET Fold Response (GCGR; tracer 0.1μM) | NanoBRET Fold Response (GCGR; tracer 1μM) | further results |
| --- | --- | --- | --- | --- | --- | --- | --- | --- | --- | --- | --- | --- | --- |
| CC(C)N(CC[C@H](c1ccccc1)c1cc(CCNC(=O)c2ccc(CNC(=O)CCc3ccc4n3[B-](F)(F)[N+]3=C(c5ccc[nH]5)C=CC3=C4)cc2)ccc1O)C(C)C [Tolterodine-BZ-NB590] | 0.96 | 0.95 | 1.02 | 1.04 | 1.34 | 0.76 | 0.89 | 1.09 | 0.97 | 1.04 | 0.82 | 1.00 |  |
| O=C(CCc1ccc2n1[B-](F)(F)[N+]1=C(c3ccc[nH]3)C=CC1=C2)NCCOCCOCCNC(=O)OCCOCCN1CCN(C2=Nc3ccccc3Sc3ccccc32)CC1 [Quetiapine-a-2-NB590] | 1.08 | 1.05 | 1.07 | 0.95 | 0.94 | 0.95 | 0.96 | 0.98 | 1.11 | 0.92 | 0.94 | 0.73 |  |
| CN1CCN(C2=Nc3cc(Cl)ccc3Nc3ccc(CNC(=O)CCOCCOCCOCCOCCNC(=O)CCc4ccc5n4[B-](F)(F)[N+]4=C(c6ccc[nH]6)C=CC4=C5)cc32)CC1 [Clozapine-b-2-NB590] |  |  |  |  |  |  |  |  |  |  |  |  | NanoBRET Fold Response (AGTR2; 0.1μM tracer): 1.03; NanoBRET Fold Response (AGTR2; 1μM tracer): 0.95; NanoBRET Fold Response (P2RY2; 0.1μM tracer): 0.96; NanoBRET Fold Response (P2RY2; 1μM tracer): 1.00; NanoBRET Fold Response (P2RY10; 0.1μM tracer): 0.96; NanoBRET Fold Response (P2RY10; 1μM tracer): 1.15; NanoBRET Fold Response (BRS3; 0.1μM tracer): 1.01; NanoBRET Fold Response (BRS3; 1μM tracer): 1.02; NanoBRET Fold Response (MTNR1B; 0.1μM tracer): 0.95; NanoBRET Fold Response (MTNR1B; 1μM tracer): 1.05; NanoBRET Fold Response (GCGR; 0.1μM tracer): 1.02; NanoBRET Fold Response (GCGR; 1μM tracer): 1.04 |
| CC(C)N(CC[C@H](c1ccccc1)c1cc(CCNC(=O)CCOCCOCCOCCOCCNC(=O)CCc2ccc3n2[B-](F)(F)[N+]2=C(c4ccc[nH]4)C=CC2=C3)ccc1O)C(C)C [Tolterodine-2-NB590] | 1.10 | 1.07 | 1.06 | 1.07 | 0.91 | 0.89 | 1.02 | 1.04 | 0.95 | 0.79 | 1.32 | 1.04 |  |
| Cc1cc2c(s1)Nc1ccccc1N=C2N1CCN(CCCNC(=O)CCOCCOCCOCCOCCNC(=O)CCc2ccc3n2[B-](F)(F)[N+]2=C(c4ccc[nH]4)C=CC2=C3)CC1 [Olanzapine-a-2-NB590] | 1.12 | 0.87 | 0.95 | 1.13 | 0.99 | 1.15 | 1.01 | 1.05 | 0.96 | 0.94 | 0.97 | 0.95 |  |
